Measurements from patent US20070117182A1, “Nucleic acids conferring transcriptional responsiveness on the RANKL gene promoter and uses thereof” (Wisconsin Alumni Research Foundation, priority 2005, published 2007).

What was measured:
Type in all cases: cell-based, mouse
RANKL = assay: RT-PCR of RANKL transcripts in treated ST2 cells; details: treated up to 24 hours, agent alone, vs beta-actin controls
Procedure: FIG. 2. Induction of RANKL in ST2 cells by hormones and cytokines. ST2 cells were treated with the agents indicated for periods up to 24 hours. Total RNA was isolated and subjected to RT-PCR using a primer set to mouse RANKL and beta-actin. Positive vitamin D target control genes include Cyp24 and osteopontin (OPN).
The inventors first established a model in which RANKL is both induced in response to 1,25(OH)2D3, PTH (forskolin) and oncostatin M (OSM), and is capable of supporting osteoclast formation when co-cultured with bone marrow monocyte- or spleen cell-derived osteoclast precursors. While a number of cell types express RANKL and induce osteoclastogenesis, the historical literature strongly supports mouse ST2 cells in this capacity, prompting the inventors to focus on this stromal/preosteoblastic line for initial studies. […] Each of these components is known to both induce RANKL expression and promote osteoclast formation as well. […] Indeed, GC effects are widely observed. […] The ability of GCs to enhance osteoclast formation in coculture assays in the presence of 1,25(OH)2D3, however, is likely due also to its coordinate ability to suppress OPG.

[1] = tested on: D5 region of the RANKL gene (RL-CCL); assay: pTK-RL(D5) luciferase reporter in ST2 cells; details: 24 hours; for luciferase activity via D5 (RL-CCL), TK promoter: agent alone
Procedure: FIG. 6. Transcriptional activity of the D5 regions of the RANKL gene in the context of the TK promoter. Sequence surrounding the D5 region (1072 bp) was cloned into the pTK-luciferase vector and termed pTK-RL(D5). […] Cells were harvested after 24 hours and luciferase activity assessed. B) ST2 cells were transfected as in A above but without the VDR expression vector and evaluated as in A. C) COS-7 cells were transfected and evaluated as in A above. Luciferase was normalized using beta-gal activity. Data represent the mean of triplicate determinations (SEM). The pTK-luc control vector was unresponsive to any of the inducers (see FIG. 9). *, p<0.05 vs no treatment control.
FIG. 11. […] A) Coordinates of the RL-D5 and the RL-D5b regions in the mouse RANKL upstream region. ST2 cells were transfected with either B) pTK-luc or pTK-mRL-D5 or C) pTK-luc and pTK-mRL-D5b and then treated with the indicated inducers. Cells were harvested after 24 hours and evaluated for luciferase activity. Luciferase was normalized using β-gal activity. Data represent the mean of triplicate determinations (SEM). *, p<0.05 vs no treatment control. **, p<0.05 vs no treatment and 1,25(OH)2D3 treated controls.
The activity of an enhancer must be evaluated in the context of its local environment, preferentially in the context of both other enhancers and its native promoter. In the case of the RANKL gene, however, this is clearly not possible due to the numbers and the distant locations of the potential regulatory regions. To tackle this problem, the inventors isolated approximately 800 to 1100 bp fragments of each region (D1 to D5) as identified through the ChIP/Chip analysis, cloned each into a luciferase expression vector under the control of a viral thymidine kinase (TK) minimal promoter, and explored the 1,25(OH)2D3- and GC-inducible activity of each following transfection into ST2 cells. […] Nevertheless, positive results provide added support for the potential regulatory capabilities of an individual DNA fragment even when examined in isolation. […] This induction was magnified by the addition of a VDR expression vector (FIG. 6a), but was also evident in the absence of such addition (FIG. 6b). […] To ensure that the viral TK promoter background was not contributing to our evaluation, the inventors cloned the mouse RANKL promoter (−100 to +65) into pGL3, inserted RL D5 and evaluated its activity in ST2 cells as well.
Based upon the above data, the inventors explored the possibility that similar to 1,25(OH)2D3, forskolin, PGE2 and OSM might be capable of activating transcription via the D5 fragment of the RANKL gene. […] Cells were harvested 24 hours later and evaluated for luciferase activity as in the previous experiments. […]

[2] = tested on: RANKL gene upstream regions D1-D5; assay: ChIP analysis of transcription factor binding to the RANKL gene in ST2 cells; details: 6 hours
Procedure: FIG. 4. Confirmation of ChIP/chip data using ChIP. A) Linear arrangement of RANKL locus re-oriented 5′ to 3′ (left to right) indicating the positions of D5 to D1, P2, and P1/TSS. Designation of primer sets used for detection in ChIP is indicated. B) ST2 cells were treated with either vehicle or 1,25(OH)2D3 and then subjected to ChIP using antibodies to VDR, RXR or IgG. Precipitated DNA was evaluated using the primer sets identified in A.
FIG. 5. […] ST2 cells were treated with the above hormones and after 6 hours subjected to ChIP analysis using antibodies to VDR, RXR, GR, C/EBP, β, RNA pol II, and IgG. Precipitated DNA was evaluated for enrichment of the indicated regions of the RANKL gene.
FIG. 10. ChIP analysis of transcription factor binding to RL D5, the TSS and intervening regions of the RANKL locus in response to 1,25(OH)2D3, forskolin and oncostatin M (OSM). ST2 cells were treated for 6 hr with the indicated inducing agents and then subjected to ChIP analysis using antibodies to the indicated factors. Precipitated DNA was analyzed by PCR for enrichment of IS7, D5, IS6 and the TSS of the RANKL gene locus. See text for details of results.
The isolated DNA was then evaluated by PCR using primers as depicted in the diagram seen in FIG. 4a which were designed to amplify small DNA segments within the 5 regions as well as segments located at intervening sites (IS) outside the five regions.
The inventors hypothesized that GC's might perhaps enhance VDR binding to RANKL regulatory regions. […] The inventors focused on the RL-CCL region (D5) and amplified the precipitated DNA using primers to this region of the gene as well as to D4, D3 and TSS and intervening regions. […] The inventors also explored the possibility that C/EBPbeta might similarly participate in the RANKL activation process. C/EBPbeta plays a significant role in the regulation of osteoblastic genes, and is found associated with both 1,25(OH)2D3 and GC target genes.
In addition to 1,25(OH)2D3 and GCs, RANKL expression is also known to be modulated by such factors as PTH, PGE2, the gp130-activating cytokines IL-6 and OSM, as well as IL-1beta and TNFalpha. […] Forskolin was used as substitute for PTH, however, as ST2 cells are deficient in PTH receptor (PTHR). Both PTH/forskolin and PGE2 are known to induce RANKL gene expression via CREB whereas OSM functions via Stat3. […] The inventors therefore explored the possibility that the RL-CCL might represent a focal target for these inducers via either CREB or Stat3 in the RANKL gene locus. ST2 cells were treated with either vehicle, 1,25(OH)2D3, forskolin or OSM for a 6 hour period and then subjected to a ChIP analysis using antibodies to VDR, C/EBPbeta, CREB, phospho-CREB, ATF-2, ATF-4, Stat3, RNA pol II and control IgG. Isolated DNA was then subjected to amplification using primers corresponding to the D5 region (RL-CCL) of the RANKL gene. As controls, the inventors also assessed the extent to which the immunoprecipitations led to the enrichment of DNA at sites surrounding the D5 region of the RANKL gene.

## CCCCC[C@H](O)/C=C/[C@H]1[C@H](O)CC(=O)[C@@H]1C/C=C\CCCC(=O)O [PGE2]
RANKL
  RANKL transcripts: substantial time-dependent increase
[1]
  luciferase activity via D5 (RL-CCL), TK promoter: not forskolin or PGE2

## IL-1beta: cytokine known to induce RANKL expression
RANKL
  RANKL transcripts: substantial time-dependent increase

## oncostatin M [OSM]
RANKL
  RANKL transcripts: substantial time-dependent increase
[2]
  CREB binding to the D5 region: modestly increased CREB association
  Stat3 binding to the D5 region: induces significant binding of Stat3
[2]; agent alone
  VDR binding to RANKL regulatory regions (D5): no effect on VDR binding
[1]; OSM 20 ng/ml
  increase in transcriptional output via mRL-D5: 3 fold
[1]
  luciferase activity via D5 (RL-CCL), TK promoter: responsive

## TNFalpha
RANKL
  RANKL transcripts: substantial time-dependent increase
